“Also recorded” adds a separate entry of the source.
Assays:
[1] = tested on: human peripheral blood mononuclear cells (PBMC); experiment: B-cell assay with stimulated PBMCs from healthy donors; format: cell-based; conditions: for cell viability (live CD19+ B cells, flow cytometry) / stimulation‐induced B cell maturation (CD27+IgD− memory B cells of live CD19+ B cells): 6 days of culture; for IgG secretion: stimulated PBMCs from healthy human blood donors, 6 days, dose-dependent; for stimulation‐induced B cell maturation (CD27+IgD− memory B cells of live CD19+ B cells): three healthy donors
Experimental: […]

CHKA = CHKA (Homo sapiens, UniProt P35790); experiment: Competitive affinity-based chemoproteomics (UNC0965 matrix), MCF7 lysate; format: binding; design: endogenous in cells; host or cells: MCF7 whole cell lysate; conditions: 20 μM competitor; for FC vs DMSO (log2 competition), CHKA: MCF7 lysate, n=2; for competition for CHKA binding to affinity matrix: MCF7 lysates
Sequence of CHKA (P35790 whole entry): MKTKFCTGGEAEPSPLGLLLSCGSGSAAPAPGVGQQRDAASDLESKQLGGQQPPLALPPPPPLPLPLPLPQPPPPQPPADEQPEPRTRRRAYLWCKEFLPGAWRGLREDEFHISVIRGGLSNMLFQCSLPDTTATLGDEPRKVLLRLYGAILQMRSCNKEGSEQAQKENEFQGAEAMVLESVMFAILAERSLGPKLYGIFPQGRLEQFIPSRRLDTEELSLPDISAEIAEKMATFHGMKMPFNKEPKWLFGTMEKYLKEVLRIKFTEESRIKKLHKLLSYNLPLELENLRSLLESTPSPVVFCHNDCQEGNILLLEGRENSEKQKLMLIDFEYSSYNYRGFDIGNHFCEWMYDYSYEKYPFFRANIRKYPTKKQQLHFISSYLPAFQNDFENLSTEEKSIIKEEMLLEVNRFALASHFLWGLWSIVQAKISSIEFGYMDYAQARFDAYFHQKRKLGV
Experimental: A-366 and UNC0638 were purchased from Tocris. ARIAD and V-11-07-11 were purchased from Wuxi Apptec. UNC0737 and UNC0965 were synthesised as previously described.[1] Hemicholinium-3 and pyruvate kinase/lactic dehydrogenase enzymes were purchased from Sigma Aldrich. Aqueous and organic solvents were MS-grade and acquired by Sigma Aldrich unless stated otherwise.
MDA-MB-231, MCF7 and HEK293 cells were cultured in DMEM (Gibco, #11965092) supplemented with 10% FBS. K562 were cultured in IMDM (Gibco, #12440053) supplemented with 10% FBS. HepG2 were cultured in MEM (Gibco, #11095080) supplemented with 10 % FBS. […]
cultured in McCoy’s 5A (Sigma, M8403) supplemented with 10 % FBS and 1x GlutaMAX (Gibco, #35050061). Cells were maintained at 37 °C in a humidified 5% CO2 atmosphere. Peripheral blood mononuclear cells (PBMC) were isolated from healthy blood donors by density centrifugation. […]
Chemical Proteomics Drug Pulldown
For lysate generation MCF7 cells were grown until approximately 80% confluency before being pelleted and washed with PBS. Cell pellets were subsequently lysed by addition of Buffer A (50 mM Tris pH 7.5, 0. 8% v/v NP-40, 5% v/v glycerol, 1.5 mM MgCl2, 100 mM NaCl, 25 mM NaF, 1 mM Na3VO4, 1 mM PMSF, 1 mM DTT, 10 μg mL−1 TLCK, 1 μg mL−1 Leupeptin, 1 μg mL−1 Aprotinin, 1 μg mL−1 soy bean trypsin) as previously described.[2]
For each pulldown condition, UNC0965 was coupled to 100 μL of UltraLink Immobilized Streptavidin Plus bead slurry (50% in isopropanol, GE Healthcare) to generate the affinity matrix as previously […]
described.[2] Lysates were precleared with bead slurry (100 μL) for 30 min at 4 °C and then treated with UNC0638 or UNC0737 (20 μM) or DMSO control for 30 min at 4 °C followed by incubation with affinity matrix for 2 h at 4 °C. Affinity matrices were washed with buffer A (5 mL) and proteins eluted with 100 μL of 2x Laemmli sample buffer, 100 mM DTT, in PBS and heating for 10 min at 90 °C.
Eluents (70 µL) were diluted in 0.1 M Tris (pH 7.8) to 200 µL, reduced with 5 mM DTT for 30 min at RT, and alkylated with 20 mM iodoacetamide for 30 min at RT in the dark. […]
Digested samples were analysed by nano-UPLC–MS/MS using a Dionex Ultimate 3000 nano UPLC fitted with an EASY spray column (75 μm × 500 mm, 2 μm particle size, Thermo Scientific), coupled to an Orbitrap Q Exactive instrument. […]
Raw data was processed using MaxQuant[3] version 2.0.1.0 and the reference complete human proteome FASTA file (UniProt, downloaded 05.08.21). Label Free Quantification (LFQ) and Match Between Runs were selected; Cysteine carbamidomethylation was selected as a fixed modification, and methionine oxidation and asparagine deamidation as variable modifications. Default settings for identification and quantification were used. […]

| SMILES | cell viability (live CD19+ B cells, flow cytometry) [1] | IgG secretion [1] | stimulation‐induced B cell maturation (CD27+IgD− memory B cells of live CD19+ B cells) [1] | FC vs DMSO (log2 competition), CHKA (CHKA) | competition for CHKA binding to affinity matrix (CHKA) |
| --- | --- | --- | --- | --- | --- |
| COc1cc2c(NC3CCN(C(C)C)CC3)nc(C3CCCCC3)nc2cc1OCCCN1CCCC1 [UNC0638] | not markedly affected | reduction of IgG secretion | reduce | -2.284 | shared off‐target |
| COc1cc2c(N(C)C3CCN(C(C)C)CC3)nc(C3CCCCC3)nc2cc1OCCCN1CCCC1 [UNC0737] | not markedly affected | reduction of IgG secretion | reduce | -4.09 | shared off‐target; also recorded: even stronger competition |
